Data: patent US5118691A, “Substituted tetrahydropyridines as central nervous system agents” (Warner-Lambert Co., priority 1991, dated 1992)
Like-named read-outs stand apart in the source and are kept apart here.

Columns and labels:
[1] = tested on: locomotor activity in mice; assay: Inhibition of locomotor activity in mice; format: in vivo; settings: Mus musculus, IP
Method: (§1) The compounds of Formula I are valuable dopaminergic agents. […] Thus, the compounds of Formula I were tested for their ability to inhibit locomotor activity in mice according to the assay described by J. R. McLean, et al, Pharmacology, Biochemistry and Behavior, Volume 8, pages 97-99 (1978); for their ability to inhibit [^3 H]-spiroperidol binding in a receptor assay described by D. Grigoriadis and P. Seeman, Journal of Neurochemistry, Volume 44, pages 1925-1935 (1985); and for their ability to inhibit dopamine synthesis in rats according to the protocol described by J. R. Walters and R. H. Roth, Naunyn-Schmiedeberg's Archives of Pharmacology, Volume 296, pages 5-14 (1976). The above test methods are incorporated herein by reference. The data in the table show the dopaminergic activity of representative compounds of Formula I.

[2] = target: T1, [^3 H]-spiroperidol binding (Rattus norvegicus, UniProt P61169); assay: Inhibition of [^3 H]-spiroperidol binding in a receptor assay
T1 construct: from tissue; host or cells: brain striatum (own knowledge from the cited method)
T1 sequence (P61169 whole entry): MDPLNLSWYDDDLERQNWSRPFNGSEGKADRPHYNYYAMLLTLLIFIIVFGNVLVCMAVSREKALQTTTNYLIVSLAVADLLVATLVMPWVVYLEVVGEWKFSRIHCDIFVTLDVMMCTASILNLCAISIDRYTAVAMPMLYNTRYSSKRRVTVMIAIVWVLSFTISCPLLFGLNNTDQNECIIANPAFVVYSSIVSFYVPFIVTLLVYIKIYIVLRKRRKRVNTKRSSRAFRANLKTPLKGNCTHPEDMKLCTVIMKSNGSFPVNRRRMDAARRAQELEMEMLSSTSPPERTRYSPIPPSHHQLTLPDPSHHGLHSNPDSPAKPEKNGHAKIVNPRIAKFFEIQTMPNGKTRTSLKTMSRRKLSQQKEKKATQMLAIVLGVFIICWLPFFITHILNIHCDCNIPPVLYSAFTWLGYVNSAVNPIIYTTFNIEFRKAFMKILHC
Method: as §1

Brain Dopamine Synthesis = assay: Inhibition of dopamine synthesis in rats (reversal of brain dopamine synthesis); format: in vivo; settings: Rattus norvegicus, IP
Method: as §1

[3] = read-out: Inhibition of [^3 H]Spiroperidol Binding IC50

SMILES	ED50 [1]	IC50 [2]	inhibition in vivo at 10 mg/kg (Brain Dopamine Synthesis)	IC50 [2, 3]
C1=C(c2ccccc2)CCN(CCCCc2ccncc2)C1 [Example 1, 4-[4-(3,6-Dihydro-4-phenyl-1(2H)-pyridinyl)butyl]-pyridine]	0.6 mg/kg	96 nM	87%	–
C1=C(c2ccccn2)CCN(CCCCc2ccncc2)C1 [Example 2, 2-[1,2,3,6-Tetrahydro-1-[4-(4-pyridinyl)butyl]-4-pyridinyl]pyridine]	0.7 mg/kg	–	88%	448 nM
C1=C(c2c[nH]c3ccccc23)CCN(CCCCc2ccncc2)C1 [Example 3]	5 mg/kg	–	–	398 nM
C1=C(c2cccs2)CCN(CCCCc2ccncc2)C1 [Example 4, 4-[4-[3,6-Dihydro-4-(2-thienyl)-1(2H)-pyridinyl]-butyl]pyridine]	1.2 mg/kg	690 nM	–	–
C1=C(c2ccccc2)CCN(CCCc2ccncc2)C1 [Example 5, 4-[3-(3,6-Dihydro-4-phenyl-1(2H)-pyridinyl)propyl]-pyridine]	0.63 mg/kg	–	61%	–
C1=C(c2ccccc2)CCN(CCCCCc2ccncc2)C1 [Example 7, 4-[5-(3,6-Dihydro-4-phenyl-1(2H)-pyridinyl)pentyl]-pyridine]	0.9 mg/kg	–	–	–
C1=C(c2cccs2)CCN(CCCCc2cccnc2)C1 [Example 8, 3-[4-[3,6-Dihydro-4-(2-thienyl)-1(2H)-pyridinyl]-butyl]pyridine]	0.66 mg/kg	–	71%	1290 nM
O=C(CCCN1CC=C(c2ccccc2)CC1)c1cccnc1 [Example 9, 4-(3,6-Dihydro-4-phenyl-1(2H)-pyridinyl)-1-(3-pyridinyl)-1-butanone]	1.1 mg/kg	–	50%	–
O=C(CCCN1CC=C(c2ccccc2)CC1)c1ccncc1 [Example 10, 4-(3,6-Dihydro-4-phenyl-1(2H)-pyridinyl)-1-(4-pyridinyl)-1-butanone]	1 mg/kg	–	57%	408 nM
C1=C(c2ccccc2)CCN(CCCCc2cccnc2)C1 [Example 12, 3-[4-(3,6-Dihydro-4-phenyl-1(2H)-pyridinyl)butyl]-pyridine]	0.28 mg/kg	–	80%	170 nM
C1=C(c2ccccc2)CCN(CCCCc2cnc3ccccc3c2)C1 [Example 13, 3-[4-(3,6-Dihydro-4-phenyl-1(2H)-pyridinyl)butyl]-quinoline]	0.37 mg/kg	46 nM	100%	–
C1=C(c2cccs2)CCN(CCCCc2cnc3ccccc3c2)C1 [Example 14]	1.5 mg/kg	–	–	–
C1=C(c2ccccn2)CCN(CCCCc2cnc3ccccc3c2)C1 [Example 15, 3-[4-[3,6-Dihydro-4-(2-pyridinyl)-1(2H)-pyridinyl]-butyl]quinoline]	0.14 mg/kg	–	–	–
